Read-outs that look alike come from different tables or passages of the source.
How the values were obtained:
[1] = molecular target: T1, MycN (Homo sapiens, UniProt P04198); assay: Degradation of MycN protein in SK-N-BE(2) cells (JESS/Western blot); format: cell-based; conditions: for Dmax at 0.5 µM: read-out: % Degradation of MycN (SKNBE2) 24 h, 0.5 μM; for Dmax at 1 µM: read-out: % Degradation of MycN (SKNBE2) 24 h, 1 μM; for Dmax at 3 µM: read-out: % Degradation of MycN (SKNBE2) 24 h, 3 μM; for Dmax at 6 µM: read-out: % Degradation of MycN (SKNBE2) 24 h, 6 μM
T1 construct: endogenous in cells; host or cells: SK-N-BE(2)
T1 sequence (P04198 1-464): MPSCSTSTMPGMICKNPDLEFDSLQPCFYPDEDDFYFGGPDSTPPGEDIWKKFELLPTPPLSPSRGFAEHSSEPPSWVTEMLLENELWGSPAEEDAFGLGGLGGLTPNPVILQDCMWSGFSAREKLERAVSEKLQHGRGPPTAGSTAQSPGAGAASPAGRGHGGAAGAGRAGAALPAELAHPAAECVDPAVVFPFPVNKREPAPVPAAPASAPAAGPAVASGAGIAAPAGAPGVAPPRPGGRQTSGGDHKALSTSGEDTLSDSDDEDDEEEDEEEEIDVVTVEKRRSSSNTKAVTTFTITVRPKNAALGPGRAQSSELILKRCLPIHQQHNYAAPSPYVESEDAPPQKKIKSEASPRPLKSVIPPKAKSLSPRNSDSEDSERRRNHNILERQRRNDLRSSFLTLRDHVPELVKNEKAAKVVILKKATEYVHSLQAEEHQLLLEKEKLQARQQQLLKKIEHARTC
Procedure: (§1) For L363 cells (suspension), 1E6 cells were plated into each well of a 6 well plate. For SK—N-BE(2) cells (adherent), 5E5 cells were plated into each well of a 6 well dish. […] All compounds were diluted to 10 mM in DMSO. Cells were treated with the compound for 24 hrs, then for both cell types, media containing cells were removed from wells into a 15 ml centrifuge tube, and remaining adherent SK—N-BE(2) cells were also scraped from the wells into the appropriate tubes. Tubes were centrifuged, cells were washed with PBS then re-centrifuged to pellet cells. A RIPA buffer cocktail was added to the cells on ice for 5 mins. Cell lysates were clarified by centrifugation and stored at −80 degrees until required. BCA assay was performed on each lysate to determine the protein concentration. For validation studies of antibodies, lysates and antibodies were used at a number of concentrations (Lysates: 2, 1, 0.2 mg/ml; Antibodies: 1 in 50, 1 in 200 dilution). Once an appropriate lysate concentration and antibody concentration was determined, samples were screened in the JESS technology (Protein Simple, San Jose, CA—https://www.proteinsimple.com/jess.html). Target protein antibodies (n-myc and c-myc) were detected in the chemiluminescence channel and loading controls (tubulin and GAPDH) were detected using a Near Infra Red (NIR) labeled secondary antibody. For SK—N-EB2 adherent cells, 5E5 cells in 1.9 mls media were plated into 6 well dishes and incubated for 24 hrs. […] Cells were scrapped off the plate, centrifuged, washed with PBS, centrifuged, then a RIPA buffer cocktail added to the cells (100 ul), centrifuged and stored at −80 for later analysis. For L363 suspension cells, 1E6 cells were plated into 24 well dishes (950 ul media) and incubated for 24 hrs. […] Cells were aspirated into tubes, centrifuged, washed with PBS, centrifuged, then a RIPA buffer cocktail added to the cells (100 ul), centrifuged and stored at −80 for later analysis. For Western blot, a BCA (total protein) assay was run on all samples, these were then run in batches of 5 compounds plus control (DMSO) on each Western blot run—n-myc and c-myc were run in separate experiments in the chemiluminescence channel. Both tubulin and GAPDH were run as loading controls in all lanes in the near infra red channel.

[2] = molecular target: T2, MycC (Homo sapiens, UniProt P01106); assay: Degradation of MycC protein in L363 cells (JESS/Western blot); format: cell-based; conditions: for Dmax at 3 µM: read-out: % Degradation of MycC (L-363) 24 h, 3 μM; for Dmax at 6 µM: read-out: % Degradation of MycC (L-363) 24 h, 6 μM; for Dmax at 1 µM: read-out: % Degradation of MycC (L-363) 24 h, 1 μM; for Dmax at 0.5 µM: read-out: % Degradation of MycC (L-363) 24 h, 0.5 μM
T2 construct: endogenous in cells; host or cells: L363
T2 sequence (P01106 whole entry): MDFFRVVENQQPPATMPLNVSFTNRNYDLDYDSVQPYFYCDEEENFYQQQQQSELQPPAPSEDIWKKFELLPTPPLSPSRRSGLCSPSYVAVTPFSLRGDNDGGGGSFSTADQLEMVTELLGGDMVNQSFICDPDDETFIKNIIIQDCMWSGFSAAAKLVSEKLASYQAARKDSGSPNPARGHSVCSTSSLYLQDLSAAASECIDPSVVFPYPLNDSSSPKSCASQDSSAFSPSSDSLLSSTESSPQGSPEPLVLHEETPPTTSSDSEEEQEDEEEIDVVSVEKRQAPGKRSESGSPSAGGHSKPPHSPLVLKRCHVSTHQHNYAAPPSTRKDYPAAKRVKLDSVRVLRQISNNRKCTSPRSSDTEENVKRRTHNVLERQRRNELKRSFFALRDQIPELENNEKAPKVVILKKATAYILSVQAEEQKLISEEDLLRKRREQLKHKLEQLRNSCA
Procedure: as §1

Structure (SMILES) | Dmax at 0.5 µM ([1]; SKNBE2 cells, 24 h, 0.5 μM) [%] | Dmax at 1 µM ([1]; SKNBE2 cells, 24 h, 1 μM) [%] | Dmax at 3 µM ([1]; SKNBE2 cells, 24 h, 3 μM) [%] | Dmax at 6 µM ([1]; SKNBE2 cells, 24 h, 6 μM) [%] | Dmax at 3 µM ([2]; L-363 cells, 24 h, 3 μM) [%] | Dmax at 6 µM ([2]; L-363 cells, 24 h, 6 μM) [%] | Dmax at 0.5 µM ([1]; SKNBE2, 24 h) [%] | Dmax at 1 µM ([1]; SKNBE2, 24 h) [%] | Dmax at 3 µM ([1]; SKNBE2, 24 h) [%] | Dmax at 6 µM ([1]; SKNBE2, 24 h) [%] | Dmax at 1 µM ([2]; L-363 cells, 24 h, 1 μM) [%] | Dmax at 0.5 µM ([2]; L-363 cells, 24 h, 0.5 μM) [%] | Dmax at 0.5 µM ([2]; L-363, 24 h) [%] | Dmax at 1 µM ([2]; L-363, 24 h) [%] | Dmax at 3 µM ([2]; L-363, 24 h) [%] | Dmax at 6 µM ([2]; L-363, 24 h) [%]
CN1CCC(CNc2nccc(Nc3cc(C4CCCC4)[nH]n3)n2)CC1 [Compound 1] | 20 to 49 | < 20 | 20 to 49 | 80 to 100 | < 20 | < 20 |  |  |  |  |  |  |  |  |  | 
CN(CC12CNC(C1)C2)c1nccc(Nc2cc(C3CC3)[nH]n2)n1 [Compound 2, N^2-((2-Azabicyclo[2.1.1]hexan-4-yl)methyl)-N^4-(5-cyclopropyl-1H-pyrazol-3-yl)-N^2-methylpyrimidine-2,4-diamine] | 20 to 49 | < 20 | 20 to 49 | 50 to 79 |  |  |  |  |  |  |  |  |  |  |  | 
c1cc(Nc2cc(C3CC3)[nH]n2)nc(NCC23CNC(C2)C3)n1 [Compound 3, N^2-((2-Azabicyclo[2.1.1]hexan-4-yl)methyl)-N^4-(5-cyclopropyl-1H-pyrazol-3-yl)pyrimidine-2,4-diamine] |  |  |  |  |  |  | < 20 | < 20 | < 20 | 20 to 49 |  |  |  |  |  | 
CN1CC2(CNc3nccc(Nc4cc(C5CC5)[nH]n4)n3)CC1C2 [Compound 4, N^4-(5-Cyclopropyl-1H-pyrazol-3-yl)-N^2-((2-methyl-2-azabicyclo[2.1.1]hexan-4-yl)methyl)pyrimidine-2,4-diamine] |  |  | < 20 | 20 to 49 | 20 to 49 | < 20 |  |  |  |  | < 20 |  |  |  |  | 
CN1CC2(CCC(Nc3nccc(Nc4cc(C5CCCC5)[nH]n4)n3)CC2)C1 [Compound 20, N^4-(5-Cyclopentyl-1H-pyrazol-3-yl)-N^2-(2-methyl-2-azaspiro[3.5]nonan-7-yl)pyrimidine-2,4-diamine] | 80 to 100 | 80 to 100 | 80 to 100 | 80 to 100 | 80 to 100 | 80 to 100 |  |  |  |  | 80 to 100 | 80 to 100 |  |  |  | 
c1cc(Nc2cc(C3CC3)[nH]n2)nc(NC2CC3(CNC3)C2)n1 [Compound 28, N^4-(5-cyclopropyl-1H-pyrazol-3-yl)-N^2-(2-azaspiro[3.3]heptan-6-yl)pyrimidine-2,4-diamine] |  |  |  | < 20 | < 20 | 20 to 49 |  |  |  |  | < 20 | < 20 |  |  |  | 
c1cc(Nc2cc(C3CC3)[nH]n2)nc(NC2CCNCC2)n1 [Compound 29] |  | < 20 | 80 to 100 | 80 to 100 | 80 to 100 | 80 to 100 |  |  |  |  | 80 to 100 | 50 to 79 |  |  |  | 
c1cc(Nc2cc(C3CCCC3)[nH]n2)nc(NC2CC3(CNC3)C2)n1 [Compound 30, N^4-(5-cyclopentyl-1H-pyrazol-3-yl)-N^2-(2-azaspiro[3.3]heptan-6-yl)pyrimidine-2,4-diamine] | < 20 | < 20 |  | 50 to 79 | 80 to 100 | 80 to 100 |  |  |  |  | 80 to 100 | 80 to 100 |  |  |  | 
CN1CCC(Nc2nccc(Nc3cc(C4CCCC4)[nH]n3)n2)CC1 [Compound 31] |  |  |  |  |  |  | < 20 |  | 80 to 100 | 80 to 100 |  |  | 50 to 79 | 50 to 79 | 80 to 100 | 80 to 100
c1cc(Nc2cc(C3CCCC3)[nH]n2)nc(NC2CCNCC2)n1 [Compound 32, N^4-(5-cyclopentyl-1H-pyrazol-3-yl)-N^2-(piperidin-4-yl)pyrimidine-2,4-diamine] |  | 50 to 79 | 80 to 100 | 80 to 100 | 80 to 100 | 80 to 100 |  |  |  |  | 50 to 79 | 50 to 79 |  |  |  | 
c1cc(Nc2cc(C3CC3)[nH]n2)nc(NC2CCC3(CC2)CNC3)n1 [Compound 33, N^4-(5-Cyclopropyl-1H-pyrazol-3-yl)-N^2-(2-azaspiro[3.5]nonan-7-yl)pyrimidine-2,4-diamine] | 20 to 49 | 20 to 49 | 80 to 100 | 80 to 100 | 20 to 49 | 80 to 100 |  |  |  |  | < 20 |  |  |  |  | 
CN1CC2(CCC(Nc3nccc(Nc4cc(C5CC5)[nH]n4)n3)CC2)C1 [Compound 34, N^4-(5-cyclopropyl-1H-pyrazol-3-yl)-N^2-(2-methyl-2-azaspiro[3.5]nonan-7-yl)pyrimidine-2,4-diamine] | 80 to 100 | 80 to 100 | 80 to 100 | 80 to 100 | 80 to 100 | 80 to 100 |  |  |  |  | 50 to 79 | < 20 |  |  |  | 
CN1CCC(C(=O)Nc2nccc(Nc3cc(C4CC4)[nH]n3)n2)CC1 [Compound 35, N-(4-((5-cyclopropyl-1H-pyrazol-3-yl)amino)pyrimidin-2-yl)-1-methylpiperidine-4-carboxamide] | 20 to 49 | < 20 | 20 to 49 | 20 to 49 | < 20 | < 20 |  |  |  |  |  |  |  |  |  | 
CN1CC2(CC(Nc3nccc(Nc4cc(C5CC5)[nH]n4)n3)C2)C1 [Compound 36, N^4-(5-cyclopropyl-1H-pyrazol-3-yl)-N^2-(2-methyl-2-azaspiro[3.3]heptan-6-yl)pyrimidine-2,4-diamine] | < 20 | < 20 | 20 to 49 | 80 to 100 | 20 to 49 | 50 to 79 |  |  |  |  | 50 to 79 | 20 to 49 |  |  |  | 
Cn1cc(C(=O)N2CCC(Nc3nccc(Nc4cc(C5CC5)[nH]n4)n3)CC2)nn1 [Compound 37, (4-((4-((5-Cyclopropyl-1H-pyrazol-3-yl)amino)pyrimidin-2-yl)amino)piperidin-1-yl)(1-methyl-1H-1,2,3-triazol-4-yl)methanone] |  | < 20 | 20 to 49 | 20 to 49 | 20 to 49 | < 20 |  |  |  |  |  |  |  |  |  | 
CN1CC2(CC(Nc3nccc(Nc4cc(C5CCCC5)[nH]n4)n3)C2)C1 [Compound 38, N^4-(5-cyclopentyl-1H-pyrazol-3-yl)-N^2-(2-methyl-2-azaspiro[3.3]heptan-6-yl)pyrimidine-2,4-diamine] | 20 to 49 | 50 to 79 | 80 to 100 | 80 to 100 | 20 to 49 | 50 to 79 |  |  |  |  | 50 to 79 | 20 to 49 |  |  |  | 
CN1CC[C@@H](Nc2nccc(Nc3cc(C4CC4)[nH]n3)n2)[C@@H](F)C1 [Compound 42, N4-(5-Cyclopropyl-1H-pyrazol-3-yl)-N2-[(3S,4R)-3-fluoro-1-methyl-4-piperidyl]pyrimidine-2,4-diamine] |  | 20 to 49 | 20 to 49 | 50 to 79 |  |  |  |  |  |  |  |  |  |  |  | 

Reference: US20250177393A1, “MODULATORS OF MYC FAMILY PROTO-ONCOGENE PROTEIN” (Nalo Therapeutics, priority 2022, published 2025)
